# Laboratory results taken from PMC7966384, “In vivo and in vitro reconstitution of unique key steps in cystobactamid antibiotic biosynthesis” (Nature Communications, 2021).
# Key:
# [1] = biological target: T1, CysH (Cystobacter sp. Cbv34, UniProt A0A0H4NUD7); test: intact protein ESI-MS, loading onto T domain; assay type: biochemical; settings: 1 mM ATP, 10 mM MgCl2, pH 7.5, room temperature; covalent (T domain thioester); 1 mM amino acid, 5 µM protein
# T1 construct: full-length A-T module with 38 kDa AMDH domain inserted; E. coli BL21(DE3), pHisSUMOTEV, N-terminal 6xHis tag, TEV protease treated
# [2] = biological target: T2, CysH∆AMDH (Cystobacter sp. Cbv34, UniProt A0A0H4NUD7); test: intact protein ESI-MS, loading onto T domain; assay type: biochemical; settings: 1 mM ATP, 10 mM MgCl2, pH 7.5, room temperature; covalent (T domain thioester); 1 mM amino acid, 5 µM protein
# T2 construct: E. coli BL21(DE3)
# T2 sequence (A0A0H4NUD7 entry or part of it): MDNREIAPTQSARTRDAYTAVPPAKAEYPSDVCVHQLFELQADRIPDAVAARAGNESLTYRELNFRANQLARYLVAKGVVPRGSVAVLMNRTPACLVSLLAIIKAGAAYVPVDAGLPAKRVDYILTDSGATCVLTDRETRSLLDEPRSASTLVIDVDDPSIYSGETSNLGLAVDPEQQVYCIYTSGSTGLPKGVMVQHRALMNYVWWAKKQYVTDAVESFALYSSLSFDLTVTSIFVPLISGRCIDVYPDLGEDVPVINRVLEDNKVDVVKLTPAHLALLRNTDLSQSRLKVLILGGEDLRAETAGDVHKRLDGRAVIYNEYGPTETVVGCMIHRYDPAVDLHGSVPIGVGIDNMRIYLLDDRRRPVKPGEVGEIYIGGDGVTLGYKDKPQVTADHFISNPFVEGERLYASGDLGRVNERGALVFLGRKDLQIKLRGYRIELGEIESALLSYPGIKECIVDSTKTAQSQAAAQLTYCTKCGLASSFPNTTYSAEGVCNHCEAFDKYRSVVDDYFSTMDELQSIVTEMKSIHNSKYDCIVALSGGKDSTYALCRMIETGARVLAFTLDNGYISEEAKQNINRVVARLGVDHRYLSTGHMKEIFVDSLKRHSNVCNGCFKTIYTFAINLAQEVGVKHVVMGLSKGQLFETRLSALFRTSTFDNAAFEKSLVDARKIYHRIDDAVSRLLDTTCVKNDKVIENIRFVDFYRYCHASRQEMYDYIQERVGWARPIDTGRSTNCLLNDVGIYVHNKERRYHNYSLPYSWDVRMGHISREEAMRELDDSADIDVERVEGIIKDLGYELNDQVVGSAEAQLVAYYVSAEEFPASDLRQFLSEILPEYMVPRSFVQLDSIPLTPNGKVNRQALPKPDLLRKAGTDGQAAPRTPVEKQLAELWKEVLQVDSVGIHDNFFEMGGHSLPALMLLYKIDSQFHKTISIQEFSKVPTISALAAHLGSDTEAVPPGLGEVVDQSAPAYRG
# T1 sequence (A0A0H4NUD7 entry or part of it): as above
Structure (SMILES),"intact protein ESI-MS, loading onto T domain [1]","intact protein ESI-MS, loading onto T domain [2]"
NC(=O)C[C@H](N)C(=O)O [L-asparagine],L-asparagine was favored as substrate by CysH,Incubation of CysH∆AMDH with L-asparagine only resulted in substrate loading
NC(=O)[C@@H](N)CC(=O)O [L-isoasparagine],"we also observed loading of L-glutamine, β-cyano-L-alanine, and L-isoasparagine",–
